Test in all cases: Maximal forward velocity and Km of GlcK, glucose varied (test C)
Holding throughout (type): biochemical

In experiment [1] the target is T1, Streptococcus thermophilus glucokinase (GlcK) variant E275K of DGCC7710, strain DSM32587 (DGCC12534), SEQ ID NO: 22 (Streptococcus thermophilus, UniProt Q5M4Y5, E275K).
T1 construct: G-6PDH/NADP coupled assay
T1 sequence (Q5M4Y5 1-322 E275K): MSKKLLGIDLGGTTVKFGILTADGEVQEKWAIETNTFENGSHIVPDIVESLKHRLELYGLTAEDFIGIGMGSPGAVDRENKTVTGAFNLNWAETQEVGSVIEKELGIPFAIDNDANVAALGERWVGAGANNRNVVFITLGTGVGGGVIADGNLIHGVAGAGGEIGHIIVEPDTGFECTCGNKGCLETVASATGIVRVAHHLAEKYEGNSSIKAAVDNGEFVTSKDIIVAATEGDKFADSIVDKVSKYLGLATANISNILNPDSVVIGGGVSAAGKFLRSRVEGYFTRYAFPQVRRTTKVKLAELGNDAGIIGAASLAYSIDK
As to conditions: DSM32587 crude extract, glucose 0, 5, 10, 15, 20 mM, 1 mM ATP, pH 7.2, 30° C. As for the experimental part:
A fresh overnight culture of a Streptococcus thermophilus strain in M17 containing 30 g/L lactose was obtained and used to inoculate at 1% (vol/vol) 10 ml of fresh M17 30 g/L lactose. Cells were harvested by centrifugation (6000 g, 10 min, 4° C.) at a 600 nm optical density (OD600) of 0.8+/−0.2, washed in 5 ml cold GLCK buffer (5 mM MgCl2, 10 mM K2HPO4/KH2PO4 [pH 7.2]), and resuspended in 500 μl cold GLCK buffer. EDTA-free protease inhibitors “cOmplete™” (Roche, supplier reference 04693132001) was added in GLCK buffer as described by the provider. Cells were disrupted by the addition of 100 mg glass beads (150-212 μm, Sigma G1145) to 200 μl resuspended cells and oscillation at a frequency of 30 cycles/s for 6 min in a MM200 oscillating mill (Retsch, Haan, Germany). […] Total protein content was determined by using the FLUKA Protein Quantification Kit-Rapid (ref 51254). The glucokinase activity in the cell extracts was determined spectrophotometrically by a glucose-6-phosphate dehydrogenase (G-6PDH, EC1.1.1.49):[…] assay (Porter et al., 1982), essentially as described by Pool et al. (2006). […] The optical density at 340 nm was measured for 5 minutes by using a Synergy HT multi-detection microplate reader (BIO-TEK). […] Glucokinase activity was calculated as follows: […]

Experiment [2] addresses T2, Streptococcus thermophilus glucokinase (GlcK) of strain ST1.2 (parent) (Streptococcus thermophilus, UniProt Q5M4Y5).
T2 construct: G-6PDH/NADP coupled assay
T2 sequence (Q5M4Y5 1-322): T1 sequence (Q5M4Y5 1-322 E275K) with K275E
The procedure: (§1) A fresh overnight culture of a Streptococcus thermophilus strain in M17 containing 30 g/L lactose was obtained and used to inoculate at 1% (vol/vol) 10 ml of fresh M17 30 g/L lactose. Cells were harvested by centrifugation (6000 g, 10 min, 4° C.) at a 600 nm optical density (OD600) of 0.8+/−0.2, washed in 5 ml cold GLCK buffer (5 mM MgCl2, 10 mM K2HPO4/KH2PO4 [pH 7.2]), and resuspended in 500 μl cold GLCK buffer. EDTA-free protease inhibitors “cOmplete™” (Roche, supplier reference 04693132001) was added in GLCK buffer as described by the provider. Cells were disrupted by the addition of 100 mg glass beads (150-212 μm, Sigma G1145) to 200 μl resuspended cells and oscillation at a frequency of 30 cycles/s for 6 min in a MM200 oscillating mill (Retsch, Haan, Germany). Cell debris and glass beads were removed by centrifugation (14000 g, 15 min, 4° C.), and supernatant transferred into a clean 1.5 mL centrifuge tube kept on ice. Total protein content was determined by using the FLUKA Protein Quantification Kit-Rapid (ref 51254). The glucokinase activity in the cell extracts was determined spectrophotometrically by a glucose-6-phosphate dehydrogenase (G-6PDH, EC1.1.1.49):[…] assay (Porter et al., 1982), essentially as described by Pool et al. (2006). […] The optical density at 340 nm was measured for 5 minutes by using a Synergy HT multi-detection microplate reader (BIO-TEK). […] Glucokinase activity was calculated as follows:
(§2) Glucokinase activity (U/g of total protein extract)=dOD×V/[dt×l×ε×Qprot], wherein: • dOD is the variation of optical density (OD) at 340 nm • V is the volume of the reaction (herein 250 μL)
(§3) Measurements were triplicated for each sample, and the glucokinase specific activity values given herein under test A are the mean of three independent experiments.
(§4) Measurements were triplicated for each sample, and the Vmax values given herein under test C are the mean of three independent experiments.
(§5) The respective mutants were called ST1.1m-glcK and ST1.2m-glcK. The GlcK sequence of these 2 mutants is as defined in SEQ ID NO:22.

The target in experiment [3] is T3, Streptococcus thermophilus glucokinase (GlcK) variant E275K of ST1.1, strain ST1.1m-glcK, SEQ ID NO: 22 (Streptococcus thermophilus, UniProt Q5M4Y5, E275K).
T3 construct: G-6PDH/NADP coupled assay
T3 sequence (Q5M4Y5 1-322 E275K): T1 sequence (Q5M4Y5 1-322 E275K)
The procedure:
as §1, §2, §3, §4, §5

Experiment [4] deals with T4, Streptococcus thermophilus glucokinase (GlcK) variant E275K of ST1.2, strain ST1.2m-glcK, SEQ ID NO: 22 (Streptococcus thermophilus, UniProt Q5M4Y5, E275K).
T4 construct: G-6PDH/NADP coupled assay
T4 sequence (Q5M4Y5 1-322 E275K): T1 sequence (Q5M4Y5 1-322 E275K)
As for the experimental part:
as §1, §2, §3, §4, §5

The target in experiment [5] is T5, Streptococcus thermophilus glucokinase (GlcK) of strain ST1.1 (parent) (Streptococcus thermophilus, UniProt Q5M4Y5).
T5 construct: G-6PDH/NADP coupled assay
T5 sequence (Q5M4Y5 1-322): T1 sequence (Q5M4Y5 1-322 E275K) with K275E
The procedure:
as §1, §2, §3, §4, §5

For experiment [6], the target named is T6, Streptococcus thermophilus glucokinase (GlcK) of strain DGCC7710 (DSM28255, GlcK type ST1), non-mutated, SEQ ID NO: 2 (Streptococcus thermophilus, UniProt Q5M4Y5).
T6 construct: G-6PDH/NADP coupled assay
T6 sequence (Q5M4Y5 1-322): T1 sequence (Q5M4Y5 1-322 E275K) with K275E
Particulars: DGCC7710 crude extract; glucose 0, 5, 10, 15, 20 mM; 1 mM ATP; pH 7.2; 30° C; average of three experiments.
Procedure: The linear regression representing the inverse of the specific velocity in function of the inverse of the glucose concentration gives the inverse of the maximal forward velocity at the intersection with the Y-axis of the graphic.
A fresh overnight culture of a Streptococcus thermophilus strain in M17 containing 30 g/L lactose was obtained and used to inoculate at 1% (vol/vol) 10 ml of fresh M17 30 g/L lactose. Cells were harvested by centrifugation (6000 g, 10 min, 4° C.) at a 600 nm optical density (OD600) of 0.8+/−0.2, washed in 5 ml cold GLCK buffer (5 mM MgCl2, 10 mM K2HPO4/KH2PO4 [pH 7.2]), and resuspended in 500 μl cold GLCK buffer. EDTA-free protease inhibitors “cOmplete™” (Roche, supplier reference 04693132001) was added in GLCK buffer as described by the provider. Cells were disrupted by the addition of 100 mg glass beads (150-212 μm, Sigma G1145) to 200 μl resuspended cells and oscillation at a frequency of 30 cycles/s for 6 min in a MM200 oscillating mill (Retsch, Haan, Germany). […] Total protein content was determined by using the FLUKA Protein Quantification Kit-Rapid (ref 51254). […] The optical density at 340 nm was measured for 5 minutes by using a Synergy HT multi-detection microplate reader (BIO-TEK). […] Glucokinase activity was calculated as follows: […]

Molecules are shown by their SMILES. Numbering of substitutions follows the chain as printed.

A word on the Km: it is the substrate concentration at which the rate is half of its maximum. With `OC[C@H]1OC(O)[C@H](O)[C@@H](O)[C@@H]1O` (some centres unmarked) [glucose], the “Vmax Glucokinase (glucose)” value in experiment [1] (average of three experiments) amounted to 914 U/g total protein extract; in experiment [2] (ST1.2 crude extract, glucose 0, 5, 10, 15, 20 mM, 1 mM ATP, pH 7.2, 30° C, average of three experiments) it was 2431 U/g total protein extract; in experiment [3] (ST1.1m-glcK crude extract, glucose 0, 5, 10, 15, 20 mM, 1 mM ATP, pH 7.2, 30° C, average of three experiments) it was 795 U/g total protein extract; in experiment [4] (ST1.2m-glcK crude extract, glucose 0, 5, 10, 15, 20 mM, 1 mM ATP, pH 7.2, 30° C, average of three experiments), 501 U/g total protein extract; in experiment [5] (ST1.1 crude extract, glucose 0, 5, 10, 15, 20 mM, 1 mM ATP, pH 7.2, 30° C, average of three experiments), 2687 U/g total protein extract; in experiment [6] it was 2855 U/g total protein extract. Further, the Michaelis constant (Km) in experiment [1] (read-out: Km Glucokinase (glucose), average) turned out to be 1.33 mM. The “Vm Glucokinase (glucose)” value is reported as 2431 in experiment [2] (ST1.2, summary table); 795 in experiment [3] (ST1.1m-glcK, summary table); 501 in experiment [4] (ST1.2m-glcK, summary table); 2687 in experiment [5] (ST1.1, summary table).

The values above are taken from patent US11725199B2, “Lactic acid bacteria with sweetening properties and uses thereof” (DUPONT NUTRITION BIOSCIENCES APS, priority 2017, dated 2023).
